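Briefly, cells in 96-well plates were exposed to five compound concentrations for 48 h, and endpoints were estimated by linear interpolation. TGI: total growth inhibition.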
Legend:
Test in all cases: inhibition of tumour cell growth, NCI panel, 48 h
SW-620 colon = system: SW-620 colon
KM20L2 colon = system: KM20L2 colon
SNB-78 CNS = system: SNB-78 CNS
COLO 205 colon = system: COLO 205 colon
OVCAR-3 ovarian = system: OVCAR-3 ovarian
SF-268 CNS = system: SF-268 CNS
OVCAR-4 ovarian = system: OVCAR-4 ovarian
SNB-75 CNS = system: SNB-75 CNS
NCI-H226 lung = system: NCI-H226 lung
UACC-257 melanoma = system: UACC-257 melanoma
SF-295 CNS = system: SF-295 CNS
K-562 leukemia = system: K-562 leukemia
SNB-19 CNS = system: SNB-19 CNS
HL-60(TB) leukemia = system: HL-60(TB) leukemia
NCI-H522 lung = system: NCI-H522 lung
HCC-2998 colon = system: HCC-2998 colon
NCI-H460 lung = system: NCI-H460 lung
HT29 colon = system: HT29 colon
NCI-H23 lung = system: NCI-H23 lung
LXFL 529 NSCLC = system: LXFL 529 NSCLC
XF 498 CNS = system: XF 498 CNS
A549 NSCLC = system: A549 NSCLC
DLD-1 colon = system: DLD-1 colon
SR leukemia = system: SR leukemia
SK-MEL-5 melanoma = system: SK-MEL-5 melanoma
SK-MEL-2 melanoma = system: SK-MEL-2 melanoma
786-0 renal = system: 786-0 renal
LOX IMVI melanoma = system: LOX IMVI melanoma
HCT-15 colon = system: HCT-15 colon
MALME-3M melanoma = system: MALME-3M melanoma
A498 renal = system: A498 renal
ACHN renal = system: ACHN renal
EKVX NSCLC = system: EKVX NSCLC
HOP-62 NSCLC = system: HOP-62 NSCLC
TK-10 renal = system: TK-10 renal
SK-OV-3 ovarian = system: SK-OV-3 ovarian
MOLT-4 leukemia = system: MOLT-4 leukemia
OVCAR-5 ovarian = system: OVCAR-5 ovarian
M14 melanoma = system: M14 melanoma
HCT-116 colon = system: HCT-116 colon
M19-MEL melanoma = system: M19-MEL melanoma
KM12 colon = system: KM12 colon
IGROV1 ovarian = system: IGROV1 ovarian
DMS 273 small cell lung = system: DMS 273 small cell lung
UACC-62 melanoma = system: UACC-62 melanoma
DMS 114 small cell lung = system: DMS 114 small cell lung
U251 CNS = system: U251 CNS
SK-MEL-28 melanoma = system: SK-MEL-28 melanoma
UO-31 renal = system: UO-31 renal
OVCAR-8 ovarian = system: OVCAR-8 ovarian
CCRF-CEM leukemia = system: CCRF-CEM leukemia
RPMI-8226 leukemia = system: RPMI-8226 leukemia
CAKI-1 renal = system: CAKI-1 renal
SN12C renal = system: SN12C renal

Measured: TGI

CCN1CCC(O)(/C=C/c2ccc(Cl)cc2)C(C(=O)/C=C/c2ccc(Cl)cc2)C1 (centres undefined)
33.8 µM: DLD-1 colon
28 µM: LXFL 529 NSCLC
57 µM: SK-MEL-28 melanoma
32.8 µM: HCC-2998 colon
34.2 µM: A498 renal
28.3 µM: SK-MEL-5 melanoma
29.5 µM: KM12 colon
99.3 µM: KM20L2 colon
44.9 µM: U251 CNS
61.7 µM: SK-OV-3 ovarian
56.8 µM: SW-620 colon
13.4 µM: HCT-116 colon
40.2 µM: OVCAR-3 ovarian
60.2 µM: DMS 273 small cell lung
46.4 µM: HCT-15 colon
62.6 µM: IGROV1 ovarian
81.5 µM: NCI-H522 lung
32.4 µM: LOX IMVI melanoma
42.2 µM: UACC-62 melanoma
60.3 µM: SF-295 CNS
96 µM: OVCAR-4 ovarian
92.9 µM: M19-MEL melanoma
43.3 µM: 786-0 renal
74.5 µM: SNB-75 CNS
42.8 µM: HT29 colon
61.3 µM: OVCAR-8 ovarian
92.5 µM: A549 NSCLC
35.5 µM: UACC-257 melanoma
43.6 µM: NCI-H226 lung
45.6 µM: NCI-H23 lung
not listed: RPMI-8226 leukemia | CAKI-1 renal | SN12C renal
> 100 µM: all other assays above

C#Cc1ccccc1N1C(=O)C=CC1=O
not listed: HCC-2998 colon | XF 498 CNS | LOX IMVI melanoma | HCT-15 colon | KM12 colon | DMS 273 small cell lung
> 100 µM: all other assays above

From PubChem BioAssay (NCI)
